Laboratory results: publication PMC2936419, “Engineering of N. benthamiana L. plants for production of N-acetylgalactosamine-glycosylated proteins - towards development of a plant-based platform for production of protein therapeutics with mucin type O-glycosylation” (BMC Biotechnology, 2010)

Biological target: T1, human GalNAc-T2 (Homo sapiens, UniProt Q10471)
T1 construct: gene GALNT2; full coding region, untagged (pH7WG2:GNT2), stably expressed in Nicotiana benthamiana; microsomal fraction; ~65 kDa
T1 sequence (Q10471 whole entry): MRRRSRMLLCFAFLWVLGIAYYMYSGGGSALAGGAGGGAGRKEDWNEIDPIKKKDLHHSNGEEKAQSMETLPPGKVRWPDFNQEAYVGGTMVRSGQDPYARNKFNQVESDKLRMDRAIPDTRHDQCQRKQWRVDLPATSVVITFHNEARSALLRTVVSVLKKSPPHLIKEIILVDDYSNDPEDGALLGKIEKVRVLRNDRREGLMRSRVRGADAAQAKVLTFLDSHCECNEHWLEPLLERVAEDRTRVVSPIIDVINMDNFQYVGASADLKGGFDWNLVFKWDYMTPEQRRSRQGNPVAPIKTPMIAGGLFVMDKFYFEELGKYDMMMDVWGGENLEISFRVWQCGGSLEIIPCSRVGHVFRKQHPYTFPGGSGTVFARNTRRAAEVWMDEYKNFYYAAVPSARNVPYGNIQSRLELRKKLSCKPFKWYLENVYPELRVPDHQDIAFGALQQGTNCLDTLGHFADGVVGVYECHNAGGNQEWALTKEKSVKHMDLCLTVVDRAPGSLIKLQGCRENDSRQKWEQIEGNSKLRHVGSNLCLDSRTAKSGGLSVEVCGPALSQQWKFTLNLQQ
Test: GalNAc transfer to hCG-beta peptide; RP-HPLC, MALDI-TOF MS, radioactive assay
Format: biochemical
Conditions: donor with acceptor hCG-beta peptide 113-136 (500 ug in 100 ul); 10 mM MnCl2, 25 mM Tris HCl pH 7.4, 0.25% Triton X-100, 37 C; microsomes; control-plant microsomes as negative control; also 3H-labelle

CC(=O)N[C@H]1[C@@H](OP(=O)(O)OP(=O)(O)OC[C@H]2O[C@@H](n3ccc(=O)[nH]c3=O)[C@H](O)[C@@H]2O)O[C@H](CO)[C@H](O)[C@@H]1O [UDP-GalNAc]
GalNAc transfer to hCG-beta peptide; RP-HPLC, MALDI-TOF MS, radioactive assay: plant microsomal fraction as an enzyme source, UDP-GalNAc as the donor
